In patent US9211249B2, “Methods and compositions for transdermal delivery of caffeine in the form of solutions or suspensions” (priority 2013, dated 2015):

Assay: Solubility of caffeine in caffeine-containing compositions containing various helper esters
Settings: compared with caffeine in pure water; Tables 1-9

- solubility of caffeine in water with helper ester (statement in words): increased
SMILES: CC(C)OC(=O)[C@@H](N)Cc1c[nH]c2ccccc12 [tryptophan isopropyl ester]
